In PMC9090415, “Discovery of small molecule inhibitors of Plasmodium falciparum apicoplast DNA polymerase” (Journal of Enzyme Inhibition and Medicinal Chemistry, 2022):

Target: P. falciparum apicoplast DNA polymerase (Pf-apPOL) (Plasmodium falciparum, UniProt Q8ILY1)
Assay: Fluorescence-based high-throughput DNA polymerase assay (molecular beacon), primary screen and dose-response
Assay type: biochemical
Conditions: for DNA Pol: 90 min, 10 µM; for % inhibition Apo pol 10' 2.5 / % inhibition Apo pol 10' 5 / % inhibition Apo pol 10' 10 / % inhibition Apo pol 10' 20 / % inhibition Apo pol 10' 40 / % inhibition Apo pol 10' 80: read at 10'; for % inhibition Apol 90' 2.5 / % inhibition Apol 90' 5 / % inhibition Apol 90' 10 / % inhibition Apol 90' 20 / % inhibition Apol 90' 40 / % inhibition Apol 90' 80 / % inhibition ApPOL 90' 2.5 / % inhibition ApPOL 90' 5 / % inhibition ApPOL 90' 10 / % inhibition ApPOL 90' 20 / % inhibition ApPOL 90' 40 / % inhibition ApPOL 90' 80: read at 90'; for % inhibition apPOL 180' 2.5 / % inhibition apPOL 180' 5 / % inhibition apPOL 180' 10 / % inhibition apPOL 180' 20 / % inhibition apPOL 180' 40 / % inhibition apPOL 180' 80: read at 180'; for % inhibition Apo pol 5' 2.5 / % inhibition Apo pol 5' 5 / % inhibition Apo pol 5' 10 / % inhibition Apo pol 5' 20 / % inhibition Apo pol 5' 40 / % inhibition Apo pol 5' 80: read at 5'; for % inhibition Apol 40' 2.5 / % inhibition Apol 40' 5 / % inhibition Apol 40' 10 / % inhibition Apol 40' 20 / % inhibition Apol 40' 40 / % inhibition Apol 40' 80: read at 40'
In short: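 Single-point screening used 10 µM compound with 20 nM polymerase, 20 nM hairpin substrate and 6 µM dNTPs for 90 min at 25 °C. Confirmatory titrations (2.5–80 µM) followed fluorescence at three times, and IC50 was derived from a fit including a cooperativity term n.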

[1] = 186 hits, DNA Pol (screen value), unit not given
[2] = 'DNA Pol' (screen value), unit not given
[3] = first dose-response, concentration 10
[4] = first dose-response, concentration 20

P. falciparum apicoplast DNA polymerase (Pf-apPOL), sequence (Q8ILY1 entry or part of it): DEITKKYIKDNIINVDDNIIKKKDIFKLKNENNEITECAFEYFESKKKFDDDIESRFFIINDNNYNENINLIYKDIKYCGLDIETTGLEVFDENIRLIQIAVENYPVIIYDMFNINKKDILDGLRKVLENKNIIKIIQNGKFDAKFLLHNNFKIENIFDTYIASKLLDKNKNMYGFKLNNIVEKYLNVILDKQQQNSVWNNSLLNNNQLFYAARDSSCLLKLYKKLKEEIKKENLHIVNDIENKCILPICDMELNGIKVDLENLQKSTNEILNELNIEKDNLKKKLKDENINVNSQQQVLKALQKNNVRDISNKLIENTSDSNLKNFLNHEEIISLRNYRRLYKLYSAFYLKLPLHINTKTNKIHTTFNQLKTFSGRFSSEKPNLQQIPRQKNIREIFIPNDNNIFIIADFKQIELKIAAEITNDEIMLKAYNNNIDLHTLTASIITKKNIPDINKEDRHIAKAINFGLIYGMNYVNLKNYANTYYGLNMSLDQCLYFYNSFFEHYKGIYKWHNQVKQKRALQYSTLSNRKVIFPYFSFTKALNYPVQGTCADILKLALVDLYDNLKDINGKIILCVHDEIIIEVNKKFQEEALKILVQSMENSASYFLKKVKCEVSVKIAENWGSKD

Compound: CCCc1ccc(Oc2coc3cc(OC)ccc3c2=O)cc1 [KU0193249]
- DNA Pol [1]: 73
- DNA Pol [2]: 73
- % inhibition Apo pol 10' 2.5 (DRC-1, concentration 2.5): 7.919%
- % inhibition Apo pol 10' 5 (DRC-1, concentration 5): 6.719%
- % inhibition Apo pol 10' 10 (DRC-1, concentration 10): 11.6444%
- % inhibition Apo pol 10' 20 (DRC-1, concentration 20): 12.8685%
- % inhibition Apo pol 10' 40 (DRC-1, concentration 40): 28.2048%
- % inhibition Apo pol 10' 80 (DRC-1, concentration 80): 56.0479%
- % inhibition Apol 90' 2.5 (DRC-1, concentration 2.5): 14.2398%
- % inhibition Apol 90' 5 (DRC-1, concentration 5): 11.6391%
- % inhibition Apol 90' 10 (DRC-1, concentration 10): 17.4321%
- % inhibition Apol 90' 20 (DRC-1, concentration 20): 14.1885%
- % inhibition Apol 90' 40 (DRC-1, concentration 40): 28.8567%
- % inhibition Apol 90' 80 (DRC-1, concentration 80): 54.3218%
- % inhibition apPOL 180' 2.5 (DRC-1, concentration 2.5): 21.2124%
- % inhibition apPOL 180' 5 (DRC-1, concentration 5): 19.9497%
- % inhibition apPOL 180' 10 (DRC-1, concentration 10): 25.9143%
- % inhibition apPOL 180' 20 (DRC-1, concentration 20): 21.3211%
- % inhibition apPOL 180' 40 (DRC-1, concentration 40): 35.4665%
- % inhibition apPOL 180' 80 (DRC-1, concentration 80): 56.5719%
- % inhibition Apo pol 5' (DRC-2, concentration 2.5): 8%
- % inhibition Apo pol 5' (DRC-2, concentration 5): 12%
- % inhibition Apo pol 5' (DRC-2, concentration 20): 17%
- % inhibition Apo pol 5' (DRC-2, concentration 40): 20%
- % inhibition Apol 40' (DRC-2, concentration 10): 17%
- % inhibition Apol 40' (DRC-2, concentration 20): 20%
- % inhibition Apol 40' (DRC-2, concentration 40): 25%
- % inhibition ApPOL 90' (DRC-2, concentration 10): 17%
- % inhibition ApPOL 90' (DRC-2, concentration 20): 22%
- % inhibition ApPOL 90' (DRC-2, concentration 40): 25%
- % inhibition apPOL 180' (DRC-2, concentration 5): 8%
- % inhibition apPOL 180' (DRC-2, concentration 10): 12%
- % inhibition apPOL 180' (DRC-2, concentration 40): 22%
- % inhibition Apo pol 5' 2.5 (DRC-2, concentration 2.5): 8%
- % inhibition Apo pol 5' 5 (DRC-2, concentration 5): 12%
- % inhibition Apo pol 5' 10 (DRC-2, concentration 10): 13%
- % inhibition Apo pol 5' 20 (DRC-2, concentration 20): 17%
- % inhibition Apo pol 5' 40 (DRC-2, concentration 40): 20%
- % inhibition Apo pol 5' 80 (DRC-2, concentration 80): 36%
- % inhibition Apol 40' 2.5 (DRC-2, concentration 2.5): 6.51%
- % inhibition Apol 40' 5 (DRC-2, concentration 5): 15%
- % inhibition Apol 40' 10 (DRC-2, concentration 10): 17%
- % inhibition Apol 40' 20 (DRC-2, concentration 20): 20%
- % inhibition Apol 40' 40 (DRC-2, concentration 40): 25%
- % inhibition Apol 40' 80 (DRC-2, concentration 80): 47%
- % inhibition ApPOL 90' 2.5 (DRC-2, concentration 2.5): 4.24%
- % inhibition ApPOL 90' 5 (DRC-2, concentration 5): 14%
- % inhibition ApPOL 90' 10 (DRC-2, concentration 10): 17%
- % inhibition ApPOL 90' 20 (DRC-2, concentration 20): 22%
- % inhibition ApPOL 90' 40 (DRC-2, concentration 40): 25%
- % inhibition ApPOL 90' 80 (DRC-2, concentration 80): 51%
- % inhibition apPOL 180' 2.5 (DRC-2, concentration 2.5): -0.201%
- % inhibition apPOL 180' 5 (DRC-2, concentration 5): 8%
- % inhibition apPOL 180' 10 (DRC-2, concentration 10): 12%
- % inhibition apPOL 180' 20 (DRC-2, concentration 20): 18%
- % inhibition apPOL 180' 40 (DRC-2, concentration 40): 22%
- % inhibition apPOL 180' 80 (DRC-2, concentration 80): 52%

Compound: COc1ccccc1CC(=O)N1CCc2c(nc3cc(-c4ccccc4Cl)[nH]n3c2=O)C1 [Molecule 49, COc1ccccc1CC(=O)N1CCc2c(C1)nc1n(c2=O)[nH]c(c1)c1ccccc1Cl]
- DNA Pol [1]: 46
- DNA Pol [2]: 46
- % inhibition Apo pol 10' 2.5 (DRC-1, concentration 2.5): 7.56%
- % inhibition Apo pol 10' 5 (DRC-1, concentration 5): 17%
- % inhibition Apo pol 10' 10 (DRC-1, concentration 10): 40%
- % inhibition Apo pol 10' 20 (DRC-1, concentration 20): 65%
- % inhibition Apo pol 10' 40 (DRC-1, concentration 40): 80%
- % inhibition Apo pol 10' 80 (DRC-1, concentration 80): 74%
- % inhibition Apol 90' 2.5 (DRC-1, concentration 2.5): -3.41%
- % inhibition Apol 90' 5 (DRC-1, concentration 5): 2.19%
- % inhibition Apol 90' 10 (DRC-1, concentration 10): 20%
- % inhibition Apol 90' 20 (DRC-1, concentration 20): 40%
- % inhibition Apol 90' 40 (DRC-1, concentration 40): 68%
- % inhibition Apol 90' 80 (DRC-1, concentration 80): 71%
- % inhibition apPOL 180' 2.5 (DRC-1, concentration 2.5): -9%
- % inhibition apPOL 180' 5 (DRC-1, concentration 5): -5.67%
- % inhibition apPOL 180' 10 (DRC-1, concentration 10): 8%
- % inhibition apPOL 180' 20 (DRC-1, concentration 20): 20%
- % inhibition apPOL 180' 40 (DRC-1, concentration 40): 52%
- % inhibition apPOL 180' 80 (DRC-1, concentration 80): 59%
- % inhibition Apo pol 5' (DRC-2, concentration 40): 56%
- % inhibition Apol 40' (DRC-2, concentration 5): 20%
- % inhibition Apol 40' (DRC-2, concentration 10): 44%
- % inhibition Apol 40' (DRC-2, concentration 20): 56%
- % inhibition apPOL 180' (DRC-2, concentration 20): 44%
- % inhibition apPOL 180' (DRC-2, concentration 40): 56%
- % inhibition apPOL 180' (DRC-2, concentration 80): 52%
- % inhibition Apo pol 5' 2.5 (DRC-2, concentration 2.5): 3.77%
- % inhibition Apo pol 5' 5 (DRC-2, concentration 5): 16%
- % inhibition Apo pol 5' 10 (DRC-2, concentration 10): 38%
- % inhibition Apo pol 5' 20 (DRC-2, concentration 20): 49%
- % inhibition Apo pol 5' 40 (DRC-2, concentration 40): 56%
- % inhibition Apo pol 5' 80 (DRC-2, concentration 80): 41%
- % inhibition Apol 40' 2.5 (DRC-2, concentration 2.5): 3.38%
- % inhibition Apol 40' 5 (DRC-2, concentration 5): 20%
- % inhibition Apol 40' 10 (DRC-2, concentration 10): 44%
- % inhibition Apol 40' 20 (DRC-2, concentration 20): 56%
- % inhibition Apol 40' 40 (DRC-2, concentration 40): 64%
- % inhibition Apol 40' 80 (DRC-2, concentration 80): 57%
- % inhibition ApPOL 90' 2.5 (DRC-2, concentration 2.5): 3.2%
- % inhibition ApPOL 90' 5 (DRC-2, concentration 5): 18%
- % inhibition ApPOL 90' 10 (DRC-2, concentration 10): 43%
- % inhibition ApPOL 90' 20 (DRC-2, concentration 20): 54%
- % inhibition ApPOL 90' 40 (DRC-2, concentration 40): 63%
- % inhibition ApPOL 90' 80 (DRC-2, concentration 80): 58%
- % inhibition apPOL 180' 2.5 (DRC-2, concentration 2.5): -1%
- % inhibition apPOL 180' 5 (DRC-2, concentration 5): 12%
- % inhibition apPOL 180' 10 (DRC-2, concentration 10): 34%
- % inhibition apPOL 180' 20 (DRC-2, concentration 20): 44%
- % inhibition apPOL 180' 40 (DRC-2, concentration 40): 56%
- % inhibition apPOL 180' 80 (DRC-2, concentration 80): 52%
- % inhibition Apo pol 10' [3]: 40%
- % inhibition Apol 90' [3]: 20%
- % inhibition Apol 90' [4]: 40%
- % inhibition apPOL 180' [4]: 20%
- % inhibition apPOL 180' (first dose-response, concentration 40): 52%

Compound: COc1ccc(CNC(=O)Cn2nc3c(c2NC(=O)Cc2cccs2)CSC3)cc1 [Molecule 55, COc1ccc(cc1)CNC(=O)Cn1nc2c(c1NC(=O)Cc1cccs1)CSC2]
- DNA Pol ('DNA Pol' of the 186 hits list (primary screen value)): 42
- DNA Pol (DNA Pol (primary screen value)): 42
- % inhibition Apo pol 10' (DRC-1, concentration 2.5): 7.186%
- % inhibition Apo pol 10' (DRC-1, concentration 5): 13.7887%
- % inhibition Apo pol 10' (DRC-1, concentration 10): 43.1349%
- % inhibition Apo pol 10' (DRC-1, concentration 20): 61.7989%
- % inhibition Apo pol 10' (DRC-1, concentration 40): 74.6193%
- % inhibition Apo pol 10' (DRC-1, concentration 80): 82.9138%
- % inhibition Apol 90' (DRC-1, concentration 2.5): -3.211%
- % inhibition Apol 90' (DRC-1, concentration 5): 0.071%
- % inhibition Apol 90' (DRC-1, concentration 10): 21.9926%
- % inhibition Apol 90' (DRC-1, concentration 20): 39.7839%
- % inhibition Apol 90' (DRC-1, concentration 40): 59.3907%
- % inhibition Apol 90' (DRC-1, concentration 80): 77.3387%
- % inhibition apPOL 180' (DRC-1, concentration 2.5): -10.7492%
- % inhibition apPOL 180' (DRC-1, concentration 5): -8.12%
- % inhibition apPOL 180' (DRC-1, concentration 10): 5.391%
- % inhibition apPOL 180' (DRC-1, concentration 20): 18.5765%
- % inhibition apPOL 180' (DRC-1, concentration 40): 40.1483%
- % inhibition apPOL 180' (DRC-1, concentration 80): 66.9877%
- % inhibition Apo pol 5' (DRC-2, concentration 2.5): -0.186%
- % inhibition Apo pol 5' (DRC-2, concentration 5): -3.35%
- % inhibition Apo pol 5' (DRC-2, concentration 10): 16%
- % inhibition Apo pol 5' (DRC-2, concentration 20): 23%
- % inhibition Apo pol 5' (DRC-2, concentration 40): 32%
- % inhibition Apo pol 5' (DRC-2, concentration 80): 26%
- % inhibition Apol 40' (DRC-2, concentration 2.5): -0.881%
- % inhibition Apol 40' (DRC-2, concentration 5): -4.6%
- % inhibition Apol 40' (DRC-2, concentration 10): 17%
- % inhibition Apol 40' (DRC-2, concentration 20): 23%
- % inhibition Apol 40' (DRC-2, concentration 40): 47%
- % inhibition Apol 40' (DRC-2, concentration 80): 53%
- % inhibition ApPOL 90' (DRC-2, concentration 2.5): -1.87%
- % inhibition ApPOL 90' (DRC-2, concentration 5): -7%
- % inhibition ApPOL 90' (DRC-2, concentration 10): 13%
- % inhibition ApPOL 90' (DRC-2, concentration 20): 19%
- % inhibition ApPOL 90' (DRC-2, concentration 40): 45%
- % inhibition ApPOL 90' (DRC-2, concentration 80): 63%
- % inhibition apPOL 180' (DRC-2, concentration 2.5): -6.63%
- % inhibition apPOL 180' (DRC-2, concentration 5): -14%
- % inhibition apPOL 180' (DRC-2, concentration 10): 1.41%
- % inhibition apPOL 180' (DRC-2, concentration 20): 5%
- % inhibition apPOL 180' (DRC-2, concentration 40): 35%
- % inhibition apPOL 180' (DRC-2, concentration 80): 65%
